Results from USRE38257E1, “Piperdine derivatives and hypotensives containing the same” (Ajinomoto Co., Inc., priority 1988, dated 2003).

Tested on: male spontaneously hypertensive rats
Test: Decrease in systolic blood pressure in spontaneously hypertensive rats after intravenous bolus injection, indirect (tail-cuff) method
Type: in vivo, rat
Details: for Decrease in systolic blood pressure (mmHg) time after administration (hour) 0.5: 0.5 hour after administration; for Decrease in systolic blood pressure (mmHg) time after administration (hour) 4: 4 hours after administration
Experimental: As test animals, four male spontaneously hypertensive rats (weight 400 to 440 g) that were sufficiently adapted for feeding and in which hypertension was confirmed were used.
Physiological saline aqueous solution containing 2.5% Nicolle and 2.5% ethanol of sample was intravenously administered by bolus injection at a dose of 1 ml per 1 kg of body weight. Systolic blood pressure after administration was measured by the indirect (tail-cuff) method.

Row | Molecule | Decrease in systolic blood pressure (mmHg) time after administration (hour) 0.5 (dose 10 mg/kg i.v. bolus) [mmHg] | Decrease in systolic blood pressure (mmHg) time after administration (hour) 4 (dose 10 mg/kg i.v. bolus) [mmHg] | Decrease in systolic blood pressure (mmHg) time after administration (hour) 0.5 (dose 1 mg/kg i.v. bolus) [mmHg] | Decrease in systolic blood pressure (mmHg) time after administration (hour) 4 (dose 1 mg/kg i.v. bolus) [mmHg]
1 | CC(=O)NC1CCC(CCCCN2CCC(=C3c4ccccc4C=Cc4ccccc43)CC2)CC1.Cl (centres unmarked) [Example 260, 1-(4-acetylamino-1-cyclohexyl)-4-(4-(5H-dibenzo[a,d]cyclohepten-5-ylidene)-1-piperidinyl)butane hydrochloride] | −51 | −10 | – | –
2 | COc1cccc(CN2CCC(=C3c4ccccc4CCc4ccccc43)CC2)c1.Cl [Example 184, 4-(10,11-dihydro-5H-dibenzo[a,d]cyclohepten-5-ylidene)-1-(3-methoxybenzyl)piperidine hydrochloride] | −16 | −4 | – | –
3 | C1=Cc2ccccc2C(=C2CCN(Cc3cc4ccccc4[nH]3)CC2)c2ccccc21.Cl [Example 385, 4-(5H-Dibenzo[a,d]cyclohepten-5-ylidene)-1-(2-indolylmethyl)piperidine hydrochloride] | −123 | −96 | – | –
4 | 4-(5H-Dibenzo[a,d]cyclohepten-5-ylidene)-1-(4-N-imidazolylmethyl)cinnamyl)piperidine dihydroxybutane hydrochloride [Example 210] | – | – | −78 | −69
